Entries after “also recorded” stand apart in the source; their conditions may differ.
Assays:
[1] = in vivo; cited from earlier work
MCF-7 cells [2] = details: human, 72 h, 50 nM
Method: Doxorubicin is a commonly used chemotherapy against breast cancer.
Media and treatments were changed once after 48 hrs. After 72 hrs of incubation at 37° C., 5% CO2, the cells were cultured for four hours with 10% MIT reagent (5 mg/ml; Sigma-Aldrich). The medium was aspirated, and the cells were dissolved by dimethyl sulfoxide (DMSO). Absorbance of the formazan product was measured by an enzyme-linked immunosorbent assay reader.

[3] = tested on: cAMP levels in MCF-7 cells; experiment: cAMP radioimmunoassay; type: cell-based; details: 5 minutes; for cAMP accumulation / production: exendin-4 5 nM, GLP-1 5 nM, exendin (9-39) 100 nM, 2′5′-dideoxy adenosine 30 μM (60 minutes preincubation)
Method: cAMP measurements: For cAMP measurement, a radioimmunoassay was carried out as follows: cells and 100 μl media were snap frozen in liquid nitrogen, thawed and diluted in buffer acetate. […] Bound cAMP was precipitated and counted in a γ-counter, and concentration determined using a standard curve and positive controls.

[4] = tested on: CREB, p38, ERK1/2, AKT, AMPK in MCF-7 cells; experiment: Western blot of signaling pathways (CREB, p38, ERK1/2, AKT, AMPK, ACC); type: cell-based; details: for AMPK and ACC phosphorylation (AMP kinase activity): comparable to the AMPK activator AICAR
Method: 50 μg protein extracts were loaded on 10% polyacrylamide gels, separated electrophoretically and blotted from the gel onto nitrocellulose membrane (Schleicher & Schuell Bioscience GmbH, Dassel, Del.). The membranes were then immunoblotted with the indicated antibodies. Band intensities were quantified using ImageJ software. Colony assays: 200 cells/well were plated on 12-well plate. […] Medium was replaced twice a week and at day 14, the cells were stained using crystal violet. Quantification of the results was performed using ImageJ.

MCF-7 cells [5] = experiment: cells; type: cell-based; details: Homo sapiens, MCF7, read-out: inhibition of cell viability
Description: Human embryonic kidney HEK-293 and primary liver cells were used as controls.
Medium was replaced once after 48 hrs.

[6] = cited from earlier work

Compound: COc1cccc2c1C(=O)c1c(O)c3c(c(O)c1C2=O)C[C@@](O)(C(=O)CO)C[C@@H]3O[C@H]1C[C@H](N)[C@H](O)[C@H](C)O1 [doxorubicin]
- crossing of the blood-brain barrier [1]: does not cross the blood-brain barrier
- reduction of viability (MCF-7 cells [2]): 20%

Compound: exendin(9-39)
- cAMP accumulation / production [3]: increased cAMP accumulation similarly to exendin-4 and GLP-1
- p38 MAPK activation / phosphorylation [4]: enhanced
- CREB phosphorylation ([4]; 15 minutes): enhanced
- AMPK and ACC phosphorylation (AMP kinase activity) [4]: phosphorylated

Compound: C[C@H]1O[C@@H](n2cnc3c(N)ncnc32)C[C@@H]1O [ddA, 2′5′ dideoxy-adenosine]
- cAMP accumulation / production [3]: inhibited

Compound: C=C[C@@]1(C)CC(=O)[C@]2(O)[C@@]3(C)[C@@H](O)CCC(C)(C)[C@@H]3[C@H](O)[C@H](OC(C)=O)[C@@]2(C)O1 [forskolin]
- elevation of cAMP levels ([3]; forskolin 1 μM): 6 fold
- cytotoxicity at 1 µM (MCF-7 cells [5]): 60%

Compound: Glucagon-like peptide 1 [GLP-1]
- crossing of the blood-brain barrier [1]: able to cross the blood-brain barrier
- cAMP accumulation / production [3]: elevated; also recorded: similar
- p38 MAPK activation / phosphorylation [4]: induced; also recorded: activated
- CREB phosphorylation ([4]; 15 minutes): induced; also recorded: CREB phosphorylation
- ERK1/2 and AKT pathways ([4]; 15 minutes): Neither GLP-1 nor exendin-4 affected; also recorded: neither ERK1/2 nor AKT were affected
- AMPK and ACC phosphorylation (AMP kinase activity) [4]: phosphorylated

Compound: N[C@@H](CC(=O)N1CCn2c(nnc2C(F)(F)F)C1)Cc1cc(F)c(F)cc1F [Sitagliptin, (2R)-4-oxo-4-[3-(trifluoromethyl)-5,6-dihydro[1,2,4]triazolo[4,3-a]pyrazin-7(8H)-yl]-1-(2,4,5-trifluorophenyl)butan-2-amine]
- eliminated without being metabolized ([6]; human subjects, via the kidney): 74%
- half life ([6]; in vivo): 8 to 12 h
